Results: patent US8067021B2, “Methods and compositions for delivery of growth factor to fibrous connective tissue” (Affinergy, Inc., priority 2007, dated 2011)
Where a SMILES comes first, the peptide text is derived from it. The star is where a group is joined. Biotin = O=C1N[C@H]2[C@H](CS[C@H]2CCCCC(=O)*)N1

Columns and labels:
various growth factors = assay: Further binding studies: preference of binding for various growth factors; settings: latter 3 growth factors: no detectable binding
Description: Since GDFs are also considered as members of the BMP family of proteins, and therefore share significant amino acid sequence homology, some binding cross-reactivity of peptides according to the presently disclosed subject matter with BMP-5 was noted. […] Further binding studies were performed from which was determined the preference of binding of peptides according to the presently disclosed subject matter for various growth factors. […] Thus peptides according to the presently disclosed subject matter show preferential binding to GDF-7, and show binding affinity for fibrous connective tissue-inducing growth factors.

[1] = Binding of surface-binding peptide to suture material; settings: braided polyethylene terephthalate fibers
Source text: To illustrate this embodiment, a linker was used to couple a peptide having binding affinity for a surface of an implant with a peptide having binding affinity for fibrous connective tissue-inducing growth factor. […] Similarly, peptides having amino acid sequences of SEQ ID NOs: 1-3 were used individually as representative peptides having binding affinity for fibrous connective tissue-inducing growth factor, and for inclusion as a component in a composition according to the presently disclosed subject matter.

GDF-7 = biological target: T1, GDF-7 (Mus musculus, UniProt P43029); assay: GDF-7 binding by composition immobilized on polyethylene terephthalate suture; settings: 0.5 μM of the conjugate, relative to assay background
T1 construct: purchased R&D SYSTEMS
T1 sequence (P43029 316-461): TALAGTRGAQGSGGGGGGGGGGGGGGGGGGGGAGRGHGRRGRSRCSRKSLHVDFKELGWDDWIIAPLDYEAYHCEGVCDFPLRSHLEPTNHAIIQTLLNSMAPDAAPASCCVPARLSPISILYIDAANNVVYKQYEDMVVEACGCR
Source text: Using standard methods for peptide synthesis, amino acid sequences comprising SEQ ID NO:1-3 and SEQ ID NO: 67 were synthesized to contain an amino acid linker sequence (e.g., GSSGK, SEQ ID NO:72) at the C-terminus to which was linked biotin (via the lysine residue). See, for example, SEQ ID NOs: 73-76. Streptavidin (having 4 biotin binding sites) was used in conjunction with the biotin on the biotinylated peptides to form a linker between the two different peptide components. […]
Each of the three representative compositions according to the presently disclosed subject matter or the control conjugate were added individually to respective wells containing a suture and containing GDF-7 in various concentrations (starting at 100 nM final concentration for the compositions; 0.5 μM of the conjugate) with high salt buffer-T, and incubated for 1 hour at room temperature. […] It was determined in these experiments that maximal growth factor binding to the composition occurs within the first several minutes (e.g., within a time period ranging from 5 to 10 minutes), and that no additional GDF-7 appears to be retained to the surface of the implant in a time period of up to 1 hour of contact with the implant.

| Compound | preference for binding affinity (from highest relative binding affinity to lowest) (various growth factors) | also measured |
| --- | --- | --- |
| CC[C@H](C)[C@H](NC(=O)[C@H](CCC(=O)O)NC(=O)[C@H](CCCNC(=N)N)NC(=O)[C@@H]1CCCN1C(=O)CNC(=O)[C@H](CO)NC(=O)[C@@H](N)CO)C(=O)N[C@@H](Cc1c[nH]c2ccccc12)C(=O)N[C@@H](CC(=O)O)C(=O)N[C@@H](CO)C(=O)N[C@@H](CC(C)C)C(=O)N[C@H](C(=O)NCC(=O)N[C@H](C(=O)N[C@H](C(=O)N[C@@H](CC(N)=O)C(=O)N1CCC[C@H]1C(=O)NCC(=O)N[C@@H](Cc1c[nH]c2ccccc12)C(=O)N[C@@H](CO)C(=O)N[C@@H](CCCNC(=N)N)C(=O)NCC(=O)N[C@@H](CO)C(=O)N[C@@H](CO)C(=O)NCC(=O)N[C@@H](CCCCNC(=O)CCCC[C@@H]1SC[C@@H]2NC(=O)N[C@@H]21)C(N)=O)C(C)C)C(C)C)C(C)C [SEQ ID NO: 1, ssGPREIWDSLVGVVNPGWsr] (H-SSGPREIWDSLVGVVNPGWSRGSSGK(Biotin)-NH2; N-terminus and C-terminus assumed) | GDF-7>GDF-5, BMP-2>BMP-6>BMP-5>TGF-β1, TGF-β3, or PDGF-BB | – |
| CC(C)C[C@H](NC(=O)[C@H](C)NC(=O)[C@H](Cc1c[nH]c2ccccc12)NC(=O)CNC(=O)CNC(=O)[C@@H](NC(=O)CNC(=O)CNC(=O)[C@H](CO)NC(=O)[C@@H](N)CO)C(C)C)C(=O)N[C@@H](Cc1ccccc1)C(=O)N[C@@H](CCC(=O)O)C(=O)N[C@H](C(=O)N[C@@H](CC(C)C)C(=O)N[C@@H](CCCNC(=N)N)C(=O)NCC(=O)N[C@@H](CCCCN)C(=O)N[C@@H](CCC(=O)O)C(=O)N[C@H](C(=O)N[C@@H](CO)C(=O)N[C@@H](CCCNC(=N)N)C(=O)NCC(=O)N[C@@H](CO)C(=O)N[C@@H](CO)C(=O)NCC(=O)N[C@@H](CCCCNC(=O)CCCC[C@@H]1SC[C@@H]2NC(=O)N[C@@H]21)C(N)=O)C(C)C)[C@@H](C)O [SEQ ID NO: 2, ssGGVGGWALFETLRGKEVsr] (H-SSGGVGGWALFETLRGKEVSRGSSGK(Biotin)-NH2; N-terminus and C-terminus assumed) | GDF-7>GDF-5, BMP-2, and BMP-6>BMP-5>TGF-β1, TGF-β3, or PDGF-BB | – |
| CSCC[C@H](NC(=O)CNC(=O)[C@H](CCC(=O)O)NC(=O)[C@H](Cc1c[nH]c2ccccc12)NC(=O)[C@H](CO)NC(=O)[C@H](CCCNC(=N)N)NC(=O)[C@H](CC(C)C)NC(=O)[C@H](C)NC(=O)[C@H](Cc1c[nH]c2ccccc12)NC(=O)[C@H](CCC(=O)O)NC(=O)[C@H](C)NC(=O)[C@@H](NC(=O)[C@H](CO)NC(=O)[C@@H](N)CO)C(C)C)C(=O)N[C@@H](CCCNC(=N)N)C(=O)N[C@H](C(=O)NCC(=O)N[C@@H](CCC(=O)O)C(=O)N[C@@H](C)C(=O)N[C@@H](CO)C(=O)N[C@@H](CCCNC(=N)N)C(=O)NCC(=O)N[C@@H](CO)C(=O)N[C@@H](CO)C(=O)NCC(=O)N[C@@H](CCCCNC(=O)CCCC[C@@H]1SC[C@@H]2NC(=O)N[C@@H]21)C(N)=O)C(C)C [SEQ ID NO: 3, ssVAEWALRSWEGMRVGEAsr] (H-SSVAEWALRSWEGMRVGEASRGSSGK(Biotin)-NH2; N-terminus and C-terminus assumed) | GDF-7>GDF-5, BMP-2>BMP-6>BMP-5>TGF-β1, TGF-β3, or PDGF-BB | – |
| SWWGFWNGSAAPVWSR [SEQ ID NO: 67] | – | binding affinity for suture material [1]: showed binding affinity |
| peptide conjugate: negative control: biotinylated surface-binding peptide bound to streptavidin, without peptide having binding affinity for growth factor | – | binding for GDF-7 on suture (GDF-7): no appreciable binding |
